Assay results reported in ChEMBL document CHEMBL5030524, “Discovery of Cyclic Peptidomimetic Ligands Targeting the Extracellular Domain of EGFR” (J Med Chem, 2021).
Calls of active or inactive are those of the source. No cut-off for these calls is given here.

Columns and labels:
[1] = molecular target: T1, Epidermal growth factor receptor (Homo sapiens, UniProt P00533); assay: Binding affinity to EGFR (unknown origin) assessed as dissociation constant by fluorescence polarization assay
[2] = Oral bioavailability in human; assay type: ADME, organism-based; conditions: in vivo
[3] = system: A549; assay: Antiproliferative activity against human serum starved A549 cells assessed as reduction in cell viability at 10 uM after 48 hrs by CCK8 assay relative to control; assay type: functional
[4] = system: A549; assay: Antiproliferative activity against human serum starved A549 cells assessed as reduction in cell viability after 48 hrs in presence of EGF by CCK8 assay; assay type: functional, cell-based; conditions: A549, 48 h
[5] = Selectivity ratio of IC50 for HEK293 cells to IC50 for human A549 cells; assay type: toxicity; conditions: HEK293 cells versus A549 cells, read-out: Ratio IC50
[6] = system: Mus musculus; assay: In vivo inhibition of EGFR in athymic nude Ncr/nu mouse xenografted with human A549 cell assessed as reduction in phosphorylated ERK expression at 50 mg/kg, ip administered every 2 days for 7 times measured after 6 days by immunohistochemical staining based analysis; assay type: functional, organism-based; conditions: time 6.0 day
[7] = molecular target: T1, Epidermal growth factor receptor; assay: Inhibition of EGFR in human A549 cells assessed as reduction in EGF-induced ERK phosphorylation measured after 4 hrs by Western blot analysis; assay type: cell-based
[8] = molecular target: T1, Epidermal growth factor receptor; assay: Inhibition of […] EGFR phosphorylation in human A549 cells pretreated for 4 hr followed by EGF stimulation by Western blot analysis; assay type: cell-based
[9] = system: A549; assay: Antitumor activity against human A549 cells xenografted in athymic nude Ncr/nu mouse assessed as suppression of tumor growth at 50 mg/kg, ip administered once every 2 days for seven days; assay type: functional, organism-based; conditions: time 7.0 day
[10] = system: A549; assay: Antitumor activity against human A549 cells xenografted in athymic nude Ncr/nu mouse assessed as suppression of tumor growth at 10 mg/kg, ip administered once every 2 days for seven times and measured after 6 day; assay type: functional, organism-based
[11] = Toxicity in athymic nude Ncr/nu mouse xenografted with human A549 cells assessed as effect on weight gain at 10 to 50 mg/kg, ip; assay type: organism-based; conditions: in vivo, 144 h, dose 10-50 mg/kg, time 6 day
[12] = Stability of the compound assessed as pronase (unknown origin)-mediated drug degradation measured after 20 hrs by HPLC analysis; assay type: ADME; conditions: bacteria
[13] = system: HEK293; assay: Cytotoxicity against HEK293 cells assessed as reduction in cell viability after 48 hrs by CCK8 assay; assay type: cell-based; conditions: Homo sapiens, HEK293, 48 h
[14] = system: A549; assay: Antimigratory activity against human A549 cells assessed as inhibition of cell migration at 25 uM in presence of EGF by scratch wound healing assay (reference value: 133.9 %); assay type: functional; design: scale not given: the % may be the effect or the level left
[15] = molecular target: T1, Epidermal growth factor receptor; assay: Inhibition of EGFR in human A549 cells assessed as reduction in EGF-induced Akt phosphorylation measured after 4 hrs by Western blot analysis; assay type: cell-based
[16] = system: Mus musculus; assay: In vivo inhibition of EGFR in athymic nude Ncr/nu mouse xenografted with human A549 cell assessed as reduction in phosphorylated EGFR expression at 50 mg/kg, ip administered every 2 days for 7 times measured after 6 days by immunohistochemical staining based analysis; assay type: functional, organism-based; conditions: time 6.0 day
[17] = system: A549; assay: Antimigratory activity against human A549 cells assessed as inhibition of cell migration at 25 uM measured after 30 hrs by scratch wound healing assay (reference value: 55.3 %); assay type: functional; design: scale not given: the % may be the effect or the level left
[18] = molecular target: T1, Epidermal growth factor receptor; assay: Inhibition of […] EGFR phosphorylation in human A549 cells at 25 uM pretreated for 4 hr followed by EGF stimulation by Western blot analysis relative to control; assay type: cell-based

T1 sequence (P00533 whole entry): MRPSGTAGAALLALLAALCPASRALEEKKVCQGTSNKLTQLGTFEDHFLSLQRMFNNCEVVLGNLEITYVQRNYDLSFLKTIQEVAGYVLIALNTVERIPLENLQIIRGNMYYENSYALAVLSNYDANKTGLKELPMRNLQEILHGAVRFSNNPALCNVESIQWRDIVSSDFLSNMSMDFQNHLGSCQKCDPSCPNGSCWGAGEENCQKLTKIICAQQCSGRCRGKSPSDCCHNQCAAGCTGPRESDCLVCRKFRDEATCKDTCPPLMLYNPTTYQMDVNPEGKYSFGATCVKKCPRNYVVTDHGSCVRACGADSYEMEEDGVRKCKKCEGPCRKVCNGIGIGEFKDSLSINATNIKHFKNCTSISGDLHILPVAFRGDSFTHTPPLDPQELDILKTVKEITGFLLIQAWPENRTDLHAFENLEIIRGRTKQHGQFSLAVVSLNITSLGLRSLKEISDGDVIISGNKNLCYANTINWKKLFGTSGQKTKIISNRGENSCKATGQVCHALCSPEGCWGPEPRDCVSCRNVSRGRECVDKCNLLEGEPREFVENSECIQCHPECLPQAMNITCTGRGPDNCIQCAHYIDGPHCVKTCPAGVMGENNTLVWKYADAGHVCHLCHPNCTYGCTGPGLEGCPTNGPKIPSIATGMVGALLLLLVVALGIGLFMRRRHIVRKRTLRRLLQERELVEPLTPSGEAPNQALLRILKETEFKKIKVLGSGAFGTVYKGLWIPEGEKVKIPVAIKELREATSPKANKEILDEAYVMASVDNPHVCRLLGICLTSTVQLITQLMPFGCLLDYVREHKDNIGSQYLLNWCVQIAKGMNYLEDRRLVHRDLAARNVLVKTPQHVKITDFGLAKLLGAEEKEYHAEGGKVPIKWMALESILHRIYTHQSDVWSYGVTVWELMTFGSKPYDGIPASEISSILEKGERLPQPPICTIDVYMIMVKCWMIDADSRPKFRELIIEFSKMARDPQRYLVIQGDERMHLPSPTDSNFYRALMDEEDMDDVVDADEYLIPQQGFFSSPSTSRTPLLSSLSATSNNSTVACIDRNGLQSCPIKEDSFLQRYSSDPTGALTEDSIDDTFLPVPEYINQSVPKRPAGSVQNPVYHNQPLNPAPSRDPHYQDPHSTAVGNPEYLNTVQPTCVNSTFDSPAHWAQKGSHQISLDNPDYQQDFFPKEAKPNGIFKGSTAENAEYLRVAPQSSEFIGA

SMILES	Kd [1] [µM]	bioavailability [2] [%]	Activity [3] [%]	IC50 [4] [µM]	selectivity ratio [5]	inhibition [6]	inhibition [7]	IC50 [8] [µM]	Activity [9]	Activity [10]	Activity [11]	Drug degradation [12]	IC50 [13] [µM]	Activity [14] [%]	inhibition [15]	inhibition [16]	Activity [17] [%]	inhibition [18] [%]
CC(C)C[C@H]1CN(C(=O)Cc2ccc3c(c2)OCO3)CC(=O)N[C@@H](Cc2ccccc2)CN(C(=O)CCC2CCCCC2)CC(=O)N[C@@H](Cc2ccccc2)CN(C(=O)Cc2ccc3c(c2)OCO3)CC(=O)N[C@@H](CC(C)C)C(=O)N(CC(N)=O)C(=O)CCSCc2ccc(cc2)C(=O)N1	0.55	–	–	–	–	–	–	–	–	–	–	–	–	–	–	–	–	–
NC(=O)N1c2ccccc2C=Cc2ccccc21 [CARBAMAZEPINE]	–	> 90	–	–	–	–	–	–	–	–	–	–	–	–	–	–	–	–
COc1cc(CC(=O)N2CC(=O)N[C@@H](Cc3ccccc3)C(=O)N(CC(N)=O)C(=O)CCSCc3ccc(cc3)C(=O)N[C@@H](CCCCN)CN(C(=O)CCC3CCCCC3)CC(=O)N[C@@H](Cc3ccccc3)CN(C(=O)CCc3ccccc3)CC(=O)N[C@@H](Cc3ccccc3)C2)cc(OC)c1	0.43	–	100	8.36	8	inactive	Dose-Dependent Effect	17.7	Active	inactive	Non-Toxic	Stable	62.1	64.8	Dose-Dependent Effect	Active	15.2	100
